For this test, the system named is H-2K^b:IgG fusion protein. The test can be described thus: Thermal denaturation assay, direct binding of SIINFEKL fragments. The arrangement: species or system mouse. As to conditions: normalized fluorescence melting curves, first derivative; vs NoLigand; 100 µM peptide. As for the experimental part:
Thermal denaturation studies were conducted using a StepOnePlus real-time PCR system (Applied Biosystems) with MicroAmp optical 96-well plates (Applied Biosystems cat. no. N8010560). Wells were loaded with 10 µl of H-2K^b:IgG fusion protein solution (protein conc. = 0.5 mg×ml^−1; BD Biosciences cat. no. 550750) – respectively 10 µl of PBS buffer (pH 7.36) for ligand-only controls – 2 µl of peptide or peptide fragments, 2 µl of 10× SYPRO Orange (SigmaAldrich cat. no. S5692) and 6 µl (8 µl for negative controls) to yield a total volume of 20 µl per well. Final concentrations calculated to 1 µM for H-2K^b:IgG fusion protein, 100 µM for the peptides/peptide fragments and 1× SYPRO Orange. Fluorescence intensity was measured using the Applied Biosystems ROX preset with respective excitation/emission maxima at 587/607 nm, while heating the wells continuously from 25°C to 99°C with a ramp rate of 1% (temperature increase of 1.5°C per minute). Results were recorded by StepOne 2.2.2 software and analyzed by identifying the local minimum of the derivative of the melting curve for the segment relevant for denaturation of the peptide-binding superdomain (α1,2) of the MHC-I heavy chain.

Turning to IINFEKL [synthesized SIINFEKL fragment], the “Melting point shift of peptide-MHC-I complex (melting curves)” value is recorded as “significant melting point shift”.
Then INFE [synthesized SIINFEKL fragment], with “no melting point shift”.
As to INFEKL [synthesized SIINFEKL fragment], the “Melting point shift of peptide-MHC-I complex (melting curves)” value was “significant melting point shift”.
Then SIINF [synthesized SIINFEKL fragment], with “significant melting point shift”.
Then SIINFE [synthesized SIINFEKL fragment], with “significant melting point shift”; and SIINFEK [synthesized SIINFEKL fragment], with “significant melting point shift”.

Values taken from publication PMC3674988, “Scrutinizing MHC-I Binding Peptides and Their Limits of Variation” (PLoS Computational Biology, 2013).
